Where two headings read alike, the source gives them in different places.

The values below come from article PMC9603521, “WYBQ-4: a New Bactericidal Agent against Methicillin-Resistant Staphylococcus aureus” (Microbiology Spectrum, 2022).

The subject of experiment [1] is PBP2a. The conditions noted are these: cited from earlier work; for Kd: read-out: ks.
Experiment [2] deals with MRSA USA300. Kind of experiment: TEM analysis of cell morphology / division defects. Type of experiment: cell-based, Staphylococcus aureus. The conditions noted are these: 4 μg/mL (1/2× MIC), 3 h. The procedure: MRSA USA300 was cultured overnight, diluted (1:100) into 20 mL of Trypticase soy broth (TSB) medium, and incubated at 30°C with shaking until the optical density at 600 nm (OD600) reached 0.3. […] Bacterial cells treated with 4 μg/mL ceftaroline fosamil (1/2 of their respective MIC) served as a control group. Untreated S. aureus served as a negative control. Bacteria were collected and washed in PBS and resuspended in 4% (vol/vol) glutaraldehyde fixation overnight. The fixed samples were further processed, and morphological changes in S. aureus were observed by TEM (JSM-7900F; JEOL, Japan).

The target in experiment [3] is PBP2a (Staphylococcus aureus, UniProt P07944). Briefly: PBP2a acylation kinetics, nitrocefin competition assay. Type of experiment: biochemical, MRSA. The method, then: Please refer to the supplemental material for the kinetic parameters of the interaction between WYBQ-4 and PBP2a and the determination of the rate of diacylation.
Supplementary Method. 1 Determination of the Kinetic Parameters for Interactions of […]
Determination of the kinetic parameters for interactions of WYBQ-4 with PBP2a The kinetic parameters of the interaction of WYBQ-4 with PBP2a were determined as previously described (1). The kinetics of the reaction between PBP2a of MRSA with WYBQ-4 was studied in homogeneous aqueous solution at 37℃ in 25 mM Hepes buffer, pH 7.0, containing 1 M NaCl and the inhibition of PBPs by β-lactams follows this kinetic scheme. […]
In this minimal scheme, E represents PBP2a, EI is the noncovalent preacylation complex, E-I is the covalent acyl-enzyme species, and P denotes the product of E-I hydrolysis and restoration of […]
The typical reactions of β-lactam could be monitored through competition with a chromophoric β-lactam, nitrocefin, or directly in certain cases by fluorescence intensity of protein. In this study, it is proposed to determine the secondary rate constants (k2/Ks) of WYBQ-4 by nitrocefin competition assay. The reaction was conducted in the above buffer, and the reaction system contained PBP2a (2.5 μM) and different concentrations of nitrocefin (20-120 μM). The reaction was carried out in a UV spectrophotometer (PERSEE T600, China) and the change in absorbance at 500 nm was […]
Apparent first-order rate constants for acylation by nitrocefin were determined by fitting the change in absorbance with time to eqn. (1):
A = A0 + ∆εn E0[(1 − exp (−kn∗ t)] + k0N0∆εn Ε0t (1) where A0 is the initial absorbance at 500 nm, ∆εn the change in molar absorption coefficient on nitrocefin hydrolysis (15900 M-1cm-1), E0 the initial enzyme concentration, N0 the initial nitrocefin concentration, kn* the (burst) pseudo-first-order rate constant for acylation of PBP2a by nitrocefin, and k0 the (line) second-order rate constant of a non-specific hydrolysis of nitrocefin in the presence of PBP2a. The second-order rate constants (kn) for acylation were calculated by fitting a plot of the apparent first-order rate constants (kn*) against the concentration of nitrocefin using a linear least-squares method.
Subsequently, nitrocefin (100 μM) was used as a reporter molecule to determine the apparent first-order rate constants for acylation of WYBQ-4 at different concentrations (0-500 μM) in competition assays. In this case, the change in absorbance at 500 nm with time was fitted to eqn.
Α = A + ∆ε E (k∗ ∕ (k∗ + k∗)(1 − exp (−(k∗ + k∗)t)) + k N ∆ε Ε t (2) […]

Experiment [4] has as its system MRSA USA300. Briefly: Mouse systemic infection model. It is filed as in vivo, mice. The conditions noted are these: USA300 5 × 10^7 CFU, 150 mg/kg, tail intravenous injection at 0 and 3 h, 7-day. The method, then:
The S. aureus-induced systemic infection model of mice (6-week-old female C57BL/6J mice) was established as previously described ([46]). […] The mice infected in the same way were treated with physiological saline as an infection control group. The mock group was not infected with S. aureus, and the 7-day mortality of the mice in each group was calculated.

In experiment [5] the test system is MRSA USA300. Briefly: Mouse lung infection model, survival. Type of experiment: in vivo, mice. The conditions noted are these: mouse pneumonia, USA300 2 × 10^8 CFU, 12-h intervals, within 72 h. The method, then: The animal experiments were performed using 6-week-old male C57BL/6J mice, and the mouse model of lung infection caused by MRSA USA300 was established as previously described ([43], [44]). For the survival rate, mice (10 per group) were infected with MRSA USA300 (2 × 10^8 CFU per mouse). After 2 h of infection, mice were given WYBQ-4 via subcutaneous injection and reinjected at 12-h intervals, whereas mice were treated with ceftaroline fosamil at the same doses and served as positive controls. Mice injected with only MRSA USA300 were used as a negative control. Survival of mice was recorded within 72 h, and survival rates were calculated.

Experiment [6] concerns MRSA USA300. Kind of experiment: Mouse lung infection model, bacterial load and histopathology. Type of experiment: in vivo, mice. The conditions noted are these: mouse pneumonia, USA300; after treatment. The procedure:
The mice were challenged with 1 × 10^8 CFU of MRSA USA300 to assess bacterial load and pathological changes. The dose and manner of administration in mice were consistent with the survival experiments. In addition, the mice treated with ceftaroline fosamil at 75 and 37.5 mg/kg were used as control groups. At 48 h postinfection, mice were euthanized, and the left lungs were aseptically removed, weighed, and homogenized. Then, the lung tissues were homogenized and serially diluted for CFU counts. The right lungs were fixed with 10% formalin, embedded in paraffin, thin-sectioned, subjected to conventional hematoxylin and eosin (H&E) staining, and then observed using an optical microscope.

In experiment [7] the test system is MSSA ATCC 29213. Briefly: Postantibiotic effect (viable plate count). It is filed as cell-based, Staphylococcus aureus. To be noted: 1 h exposure. The procedure: The postantibiotic effect (PAE) of WYBQ-4 against MSSA 29213 was determined in MHB agar using the viable plate count method ([39]). […] After incubation at 37°C for 1 h, WYBQ-4 was removed by centrifugation and washing with phosphate-buffered saline (PBS). Subsequently, fresh MHB medium was added to resuspend the bacteria, and the mixture was incubated at 37°C with shaking. The number of colonies was counted by taking 10 μL of bacteria at 1-h intervals and applying them to BHI agar plates after appropriate dilution. PAE duration was calculated as follows: time (h) for bacteria to return to log-phase growth after drug treatment – time (h) for the control group to return to log-phase growth ([40]).

Experiment [8] deals with PBP2a. To be noted: as reported; cited from earlier work.

Sequence of PBP2a (Staphylococcus aureus, UniProt P07944) (P07944 whole entry): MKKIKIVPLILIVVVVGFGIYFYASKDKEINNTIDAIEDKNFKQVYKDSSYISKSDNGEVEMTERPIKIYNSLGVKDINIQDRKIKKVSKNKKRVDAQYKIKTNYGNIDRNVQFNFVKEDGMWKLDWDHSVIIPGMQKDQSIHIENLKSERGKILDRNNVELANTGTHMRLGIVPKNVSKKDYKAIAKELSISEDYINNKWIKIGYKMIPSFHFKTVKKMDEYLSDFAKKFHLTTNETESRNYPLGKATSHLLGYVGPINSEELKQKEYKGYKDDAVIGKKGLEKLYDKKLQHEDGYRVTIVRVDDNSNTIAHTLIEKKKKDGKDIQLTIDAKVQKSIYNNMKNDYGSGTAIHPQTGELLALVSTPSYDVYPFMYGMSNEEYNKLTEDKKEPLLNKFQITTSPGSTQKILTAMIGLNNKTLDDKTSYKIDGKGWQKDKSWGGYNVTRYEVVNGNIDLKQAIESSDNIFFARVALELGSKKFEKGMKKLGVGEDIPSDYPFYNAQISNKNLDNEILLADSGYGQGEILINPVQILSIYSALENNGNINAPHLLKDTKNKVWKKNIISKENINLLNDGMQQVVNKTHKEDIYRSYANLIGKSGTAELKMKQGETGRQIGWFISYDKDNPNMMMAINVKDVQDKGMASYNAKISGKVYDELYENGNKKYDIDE

For the molecule `CC1(C)S[C@@H]2[C@H](NC(=O)[C@H](N)c3ccccc3)C(=O)N2[C@H]1C(=O)O` [Ampicillin], in experiment [1] (PBP2a), the k2 is recorded as 3.4 ± 0.1 s^–1 × 10^3, the k2/ks was 5.0 ± 1.0 M^–1s^–1, the k3 is 3.2 ± 0.1 s^–1 × 10^6 and the Kd is 668 ± 124 µM.
`CCO/N=C(\C(=O)N[C@@H]1C(=O)N2C(C(=O)[O-])=C(Sc3nc(-c4cc[n+](C)cc4)cs3)CS[C@H]12)c1nsc(N)n1` [Ceftaroline]: the “Percentage of defective cells (thin cell walls)” value in experiment [2] amounted to 71.9%. The k2/ks in experiment [1] (PBP2a acylation) was 4,500 ± 640 M^–1s^–1; in experiment [1] (PBP2a acylation, listed as ceftaroline) it was 4,500 M^–1s^–1. The Kd in experiment [1] (PBP2a) is 20 ± 4 µM.
With `CC(C)(O/N=C(\C(=O)N[C@@H]1C(=O)N2C(C(=O)[O-])=C(C[n+]3ccccc3)CS[C@H]12)c1csc(N)n1)C(=O)O` [Ceftazidime], in experiment [1] (PBP2a), the k2 was 1.0 ± 0.1 s^–1 × 10^3, the k2/ks was 1.5 ± 0.3 M^–1s^–1, the k3 was 3.2 ± 0.2 s^–1 × 10^6 and the Kd is 671 ± 116 µM.
On to `O=C(Cc1cccs1)N[C@@H]1C(=O)N2C(C(=O)O)=C(/C=C/c3ccc([N+](=O)[O-])cc3[N+](=O)[O-])CS[C@H]12` [Nitrocefin], for which the “primary reaction rate constant, kn*” value in experiment [3] (100 μM nitrocefin, acylation of PBP2a) is recorded as “approximately 0.05 s^−1”. Also, the “secondary rate constant, k0, for the nonspecific hydrolysis of nitrocefin” value in experiment [3] (in the presence of PBP2a) was 2.3 ± 0.14 M⁻¹ s⁻¹. Also, in experiment [1] (PBP2a), the k2 is listed as 3.7 ± 0.3 s^–1 × 10^3, the k2/ks is on record as 19.0 ± 3.0 M^–1s^–1, the k3 is reported as 7.2 ± 0.1 s^–1 × 10^6 and the Kd was 192 ± 24 µM.
On to `CO/N=C(\C(=O)N[C@@H]1C(=O)N2C(C(=O)[O-])=C(C[N+]3(C)CCCC3)CS[C@H]12)c1csc(N)n1` [cefepime], for which the survival rate in experiment [4] is recorded as 40%. In experiment [1] (PBP2a), the k2 is 1.5 ± 0.1 s^–1 × 10^3, the k2/ks is on record as 0.9 ± 0.1 M^–1s^–1 and the k3 was 5.9 ± 0.5 s^–1 × 10^6.
For the molecule `CCO/N=C(\C(=O)N[C@@H]1C(=O)N2C(C(=O)[O-])=C(Sc3nc(-c4cc[n+](C)cc4)cs3)CS[C@H]12)c1nsc(NP(=O)(O)O)n1` [ceftaroline fosamil, reference compound], in experiment [2], the “Asymmetry of bacterial division (number of cells)” value turned out to be 41, the “Distortion of septa (number of cells)” value turned out to be 31, the “Percentage of defective cells (asymmetry of bacterial division)” value was 46.1 C % and the “Percentage of defective cells (distortion of septa)” value was found to be 34.8 B %. Also, in experiment [2], the “Percentage of defective cells (thin cell walls)” value was determined as 71.9 C % and the “Thin cell walls (number of cells)” value is listed as 64. Also, in experiment [5] (37.5 mg/kg subcutaneous), the survival rate came out at 26.67%. The same molecule showed a survival rate in experiment [5] (75 mg/kg subcutaneous) of 76.67%. In addition, in experiment [6], the “inflammatory signs of lung tissue (H&E histopathology)” value was “significantly reduced”.
For `CO[C@@]1(NC(=O)C(C(=O)O)c2ccc(O)cc2)C(=O)N2C(C(=O)O)=C(CSc3nnnn3C)CO[C@@H]21` (some centres unmarked) [moxalactam, reference compound], the PAE in experiment [7] (2× MIC) is 1 h; in experiment [7] (8× MIC), 2.5 h. Further, the survival rate in experiment [4] is 50%.
For `Cc1onc(-c2ccccc2)c1C(=O)N[C@@H]1C(=O)N2[C@@H]1SC(C)(C)[C@@H]2C(=O)O` [oxacillin], the “IC50 for PBP2a” value in experiment [8] is 408 ± 6 µg/mL.
